For seven compounds, melting point and IC50 results are on record in US7091242B2, “Beta-amino acid derivatives as integrin receptor antagonists” (Bayer Aktiengesellschaft, priority 2000, dated 2006).

The subject of data set [1] is Ramos cells / immobilized VCAM-1 (extracellular domains 1–3). The data set can be described thus: Adhesion of Ramos cells to immobilized VCAM-1 (domains 1–3). The data set is classed as cell-based. Conditions: Homo sapiens, 1 h. An excerpt:
In Vitro Assay: Adhesion of Ramos Cells to Immobilized VCAM-1 (Domains 1–3) Preparation of VCAM-1 (extracellular domains 1–3)
Complementary DNA (cDNA) encoding 7-domain form of VCAM-1 (GenBank accession #M60335) was obtained using Rapid-ScreenTM cDNA library panels (OriGene Technologies, Inc) at Takara Gene Analysis Center (Shiga, Japan). The primers used were 5′-CCAAGGCAGAGTACGCAAAC-3′ (sense) and 5′-TGGCAGGTATTATTAAGGAG-3′ (antisense). PCR amplification of the 3-domain VCAM-1 cDNA was perform using Pfu DNA polymerase (Stratagene) with the following sets of primers: (U-VCAMd1–3) 5′-CCATATGGTACCTGATCAATTTAAAATCGAGACCACCCCAGAA-3′; (L-VCAMd1–3) 5′-CCATATAGCAATCCTAGGTCCAGGGGAGATCTCAACAGTAAA-3′. PCR cycle was 94° C. for 45 sec, 55° C. for 45 sec, 72° C. for 2 min, repeating 15 cycles. After the purification of the PCR product, the fragment was digested with KpnI-AvrII. The digested fragment was ligated into pBluescript IISK(-) (Strategene), which was linearized by digesting with KpnI-XhoI. The ligation was followed by transformation to a Dam/Dcm methylase-free E. coli strain SCS110 (Strategene) to create the donor plasmid pHH7. To direct VCAM-1 molecule into the insect cell secretory pathway, the VCAM-1 coding sequence was fused to signal peptide sequence of honeybee melittin. The resulting melittin-VCAM fusion was placed in correct orientation to the baculovirus polyhedrin promoter. Baculovirus transfer vector containing first 3-domain form VCAM-1 (pH10) was constructed by ligation of 0.9 kb fragment from AvrIIenow/BclI digests of pH7 into SalI/Klenow/BamHI digests of pMelBacB (Invitrogen). Recombinant baculovirus was generated by using Bac-N-Blue™ Transfection kit (Invitrogen) according to the manufacture's instruction. The recombinant virus was amplified by infection to High-Five™ insect cells for 5–6 days, and virus titer was determined by plaque assay.
High-Five™ insect cells were pelleted in a 225 ml conical tube by centrifugation at 1000 rpm for 5 min. After discarding the supernatant, the pellet was resuspended in 1.5×10^9 pfu (MOI=5) of high-titer virus solution, followed by incubation for 1.5 hours at room temperature. The cells were pelleted again and washed once in fresh Express Five™ serum free medium. The cells were pelleted again and finally, resuspended in 200 ml of fresh Express Five™ medium, transferred to a 1,000 ml shaker flask, and incubated in a shaker at 27° C., 130 rpm, for 48 hours before the culture supernatant was collected. […] Protein concentration was determined by using Coomassie protein assay reagent (Pierce) according to the manufacture's instruction. […]
Preparation of Fluorescence Labeled Ramos Cells: […]

In turn, `COc1ccc(C(CC(=O)NCc2ccc(NC(=O)Nc3ccccc3C)cc2)NC(=O)c2ccc(C(=O)OC(C)(C)C)cc2)cc1OC` (stereo not shown) [IX, tert-Butyl-4-{[(1-(3,4-dimethoxyphenyl)-3-{[4-({[(2-methylphenyl)amino]carbonyl}amino)benzyl]amino}-3-oxopropyl)amino]carbonyl}-benzoate] gave a melting point of 223 to 226 °C.

As for `COc1cccc(C(CC(=O)Nc2ccc(NC(=O)Nc3ccccc3C)cc2)NC(=O)c2ccc(C(=O)O)cc2)c1` (stereo not shown) [Example 4, 4-{[(1-(3-methoxy-phenyl)-3-{[4-({[(2-methylphenyl)-amino]carbonyl}amino)phenyl]amino}-3-oxopropyl)amino]carbonyl}benzoic acid], the melting point was 275 to 280 °C. In data set [1], the IC50 is less than 1 µM. Compound `Cc1ccccc1NC(=O)Nc1ccc(CNC(=O)C2(CNC(=O)c3ccc(C(=O)O)cc3)CCCCC2)cc1` [Example 2, 4-[({[1-({[4-({[(2-methylphenyl)amino]carbonyl}-amino)benzyl]amino}carbonyl)cyclohexyl]methyl}-amino)carbonyl]benzoicacid] gave an IC50 in data set [1] of more than 10 µM. Regarding `COc1ccc(C(CC(=O)NCc2ccc(NC(=O)Nc3ccccc3C)cc2)NC(=O)c2ccc(C(=O)O)cc2)cc1OC` (stereo not shown) [Example 3, 4-{[(1-(3,4-dimethoxy-phenyl)-3-{[4-({[(2-methyl-phenyl)amino]carbonyl}amino)benzyl]amino}-3-oxopropyl)amino]carbonyl}benzoic acid], the melting point is 214 °C. The IC50 in data set [1] was more than 10 µM. `Cc1ccccc1NC(=O)Nc1ccc(CNC(=O)C2(CNC(=O)c3ccc(C(=O)OC(C)(C)C)cc3)CCCCC2)cc1` [VIII, tert-Butyl 4-[({[1-({[4-({[(2-methylphenyl)amino]carbonyl}amino)benzyl]amino}carbonyl)cyclohexyl]methyl}-amino)carbonyl]benzoate] displayed a melting point of 187 to 189 °C. On to `COc1ccc(C(CC(=O)Nc2ccc(NC(=O)Nc3ccccc3C)cc2)NC(=O)c2ccc(C(=O)O)cc2)cc1OC` (stereo not shown) [Example 1, 4-{[(1-(3,4-Dimethoxyphenyl)-3-{[4-({[(2-methylphenyl)amino]carbonyl}amino)phenyl]amino}-3-oxopropyl)amino]carbonyl}benzoic acid], for which the melting point amounted to 166 °C. Further, the IC50 in data set [1] was less than 1 µM. In the case of `COc1ccc(C(CC(=O)Nc2ccc(NC(=O)Nc3ccccc3C)cc2)NC(=O)c2ccc(C(=O)OC(C)(C)C)cc2)cc1OC` (stereo not shown) [Example VII, tert-Butyl-4-{[(1-(3,4-dimethoxyphenyl)-3-{[4-({[(2-methylphenyl)-amino]carbonyl}amino)phenyl]amino}-3-oxopropyl)amino]carbonyl}benzoate], the melting point lay within 210 to 215 °C.
